The values below come from US20230416258A1, “BENZ[…], AND PREPARATION METHOD THEREFOR AND USE THEREOF” (CHINA PHARMACEUTICAL UNIVERSITY, priority 2020, published 2023).

Like-named read-outs stand apart in the source and are kept apart here.

In one data set the test system is hCMEC/D3 cells. The data set can be described thus: Rate of drug passing through in vitro blood-brain barrier (Transwell). Format: in vitro ADME. The conditions noted are these: hCMEC/D3 monolayer, compound 0.1 mg/mL. The gist of the method:
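Confluent hCMEC/D3 monolayers grown 10 days on Transwell inserts (5.0 μm pores). Compound at 0.1 mg/mL added to the lower chamber; upper-chamber concentration measured after 5 min, with permeability expressed as upper/lower concentration ×100%.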

Data set [1] is described as follows: In vitro plasma half-life of drug. Format: in vitro ADME, SD rats. The conditions noted are these: SD rat plasma, 37° C.; for half-life at 0.4 mg/mL: plasma (heparin sodium). As for the experimental part: Preparation of plasma: after the SD rats were fasted and kept with water for 12 h, blood was collected through orbital venous plexus. The freshly collected blood was added into a centrifuge tube containing heparin sodium and centrifuged at 5000 rpm for 10 min at 4° C. The supernatant was slowly pipetted and subpackaged. Finally, the collected SD rat plasma was sealed, marked, and stored at −20° C. for later use.
Preparation of target compound sample: the target compound was precisely weighed by an analytical balance and prepared into a stock solution at a concentration of 2 mg/mL (solvent: Vacetone:VTween 80:Vnormal saline=1:1:3) for later use.
Determination of in vitro half-life of target compound sample: 20 μL of test compound stock solution and 80 μL of rat plasma were mixed uniformly. Nine parallel ep tubes were taken, marked as corresponding test tubes of 0 min, 1 min, 2 min, 3 min, 5 min, 10 min, 15 min, 20 min, and 30 min, respectively, and placed in a water bath at 37° C. for incubation for 0 min, 1 min, 2 min, 3 min, 5 min, 10 min, 15 min, 20 min, and 30 min, respectively. 50 μL of mixed solution were taken from the corresponding ep tube at each time point, and […] of acetonitrile was added for precipitating protein. The mixture was vortexed for 10 min using a mixer and centrifuged at 12000 rpm for 15 min. Then, the supernatant was centrifuged at 12000 rpm for 10 min. The optimal detection method for the target compound in the MRM mode was determined using Intellistat software in UPLC-MS/MS, the peak area of the corresponding mass spectrum was integrated, and the plasma half-life of the compound was calculated.

Data set [2] deals with SD rats. The data set is described as follows: Test for drug-induced disappearance of righting reflex in rats. Format: in vivo. The conditions noted are these: single rapid bolus via tail vein. The gist of the method:
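Male SD rats (200-280 g) were randomly grouped and given a single rapid bolus dose via the tail vein. Latency to loss of righting reflex and its duration were recorded.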

Another data set concerns KM mice. The data set is described as follows: Test for drug-induced disappearance of righting reflex in mice. Format: in vivo. Particulars: single rapid bolus via tail vein. The gist of the method: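 Female KM mice (18–25 g), randomly grouped, given a single rapid bolus via tail vein. Latency (administration to loss of righting reflex) and duration (loss to recovery) recorded.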

Data set [3] relates to SD rats. The data set can be described thus: Induction of anesthesia in rats by continuous infusion of drug for 20 min. Particulars: initial dose 20 mg/kg bolus, maintenance dose 0.2 (mg/kg)/min for 20 min, after infusion completed. Format: in vivo. As for the experimental part: SD rats (male, 200-280 g) were randomly grouped and subjected to administration of an initial dose by rapid bolus via the tail vein, followed by a continuous infusion with a maintenance dose for 20 min.
After the infusion was completed, the duration of the righting reflex and the time from wake-up to recovery in rats were recorded.

Data set [4] has as its system GABA-activated Cl− current (GABAA receptor) in HEK 293T cells. The data set is described as follows: Effect of drugs on GABA-activated current in cells by cell patch clamp. Format: cell-based. Particulars: for Enhancement percentage Emax for 2 μM GABA current (within 3-30 μM): corresponding concentration 20 μM. The gist of the method:
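Whole-cell patch clamp of HEK 293T cells held at −60 mV; compound applied together with 2 μM GABA in extracellular buffer (140 mM NaCl, HEPES, pH 7.4). Enhancement of GABA-evoked Cl− current recorded in the same cell, reported as maximal enhancement (Emax) and corresponding concentration.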

Data set [5] concerns the target voltage-gated potassium channel hERG (Homo sapiens (Human), UniProt Q12809). The data set can be described thus: Predictor hERG fluorescence polarization assay. Format: binding. As for the experimental part: In this experiment, IC50 was calculated by detecting the effect of compounds at 8 concentrations on the […]. The procedures were performed exactly as for Predictor™ hERG fluorescence polarization assay kit. Before measuring fluorescence polarization, the assay plate was covered to protect the reagents from light and evaporation, and after incubation at room temperature for 2-4 h, the sample plate was centrifuged to read the fluorescence polarization value, with the excitation light at 540 nm and the emission light at 573 nm.

Where [6] appears, read: read-out: Positive enhancement EC50 (μM) for 2 μM GABA-induced current, −60 mV.

Sequence of voltage-gated potassium channel hERG (Q12809 whole entry, looked up): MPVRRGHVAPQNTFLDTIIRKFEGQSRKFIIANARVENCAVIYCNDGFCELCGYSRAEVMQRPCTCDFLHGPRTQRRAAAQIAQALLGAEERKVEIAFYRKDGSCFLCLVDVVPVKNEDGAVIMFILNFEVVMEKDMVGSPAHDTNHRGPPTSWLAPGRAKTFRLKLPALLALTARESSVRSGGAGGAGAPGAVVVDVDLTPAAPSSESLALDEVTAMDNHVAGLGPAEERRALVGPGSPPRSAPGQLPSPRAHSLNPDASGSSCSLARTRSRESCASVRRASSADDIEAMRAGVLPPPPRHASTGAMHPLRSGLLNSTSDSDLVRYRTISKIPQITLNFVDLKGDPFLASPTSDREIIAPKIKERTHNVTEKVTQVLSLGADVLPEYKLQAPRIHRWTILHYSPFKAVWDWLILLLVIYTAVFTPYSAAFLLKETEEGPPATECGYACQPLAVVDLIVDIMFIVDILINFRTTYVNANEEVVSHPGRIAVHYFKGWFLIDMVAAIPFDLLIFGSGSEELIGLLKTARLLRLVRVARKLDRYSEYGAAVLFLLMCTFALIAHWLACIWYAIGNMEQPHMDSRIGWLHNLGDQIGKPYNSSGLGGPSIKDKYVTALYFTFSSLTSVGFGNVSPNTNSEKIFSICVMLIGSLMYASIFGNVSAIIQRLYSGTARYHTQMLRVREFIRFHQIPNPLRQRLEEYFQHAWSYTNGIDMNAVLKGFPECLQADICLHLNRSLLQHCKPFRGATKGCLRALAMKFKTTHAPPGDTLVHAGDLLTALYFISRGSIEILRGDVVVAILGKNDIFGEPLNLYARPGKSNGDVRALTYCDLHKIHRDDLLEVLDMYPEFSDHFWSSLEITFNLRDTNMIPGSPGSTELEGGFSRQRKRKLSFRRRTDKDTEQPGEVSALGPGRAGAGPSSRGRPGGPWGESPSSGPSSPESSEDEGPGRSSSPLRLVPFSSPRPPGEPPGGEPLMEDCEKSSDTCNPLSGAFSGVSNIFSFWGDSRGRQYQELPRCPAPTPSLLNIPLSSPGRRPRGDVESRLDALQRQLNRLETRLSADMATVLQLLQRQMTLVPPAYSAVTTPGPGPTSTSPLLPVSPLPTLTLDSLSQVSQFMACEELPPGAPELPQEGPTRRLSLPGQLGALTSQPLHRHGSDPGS

Regarding `COC(=O)CC[C@@H]1N=C(c2ccccc2F)c2cc([N+](=O)[O-])ccc2-n2c(SCCN3CCOCC3)nnc21` [Compound 53, methyl (S)-3-(8-nitro-6-(2-fluorophenyl)-1-((2-morpholinoethyl)thio)-4H-benzo[f][1,2,4]triazolo[4,3-a][1,4]diazepin-4-yl)propionate], the “In vitro blood-brain barrier, compound permeability at 5 min” value (“In vitro blood-brain barrier” below) with hCMEC/D3 cells was found to be 69.9%. Further, the half-life – broadly, the time needed for the level to fall by half in the phase considered – at 0.4 mg/mL in data set [1] was determined as 0.33 min. This compound showed a Latency in the data set on SD rats [2] of 0.18 min. In the data set on KM mice (60 mg/kg), the Duration came to 9.98 min and the Latency turned out to be 0.42 min. In the data set on SD rats [3], the Duration of anesthesia is reported as 4.17 min and the “Time from wake-up to recovery” value came out at 13.5 min. Further, in data set [4] (setting [6]), the EC50 (in general, the midpoint of the concentration-response curve) was 0.53 µM. The “Enhancement percentage Emax for 2 μM GABA current (within 3-30 μM)” value (shortened to “Enhancement percentage Emax”) in data set [4] (−60 mV) was 285% (20 μM).

In the case of `COC(=O)CC[C@@H]1N=C(c2ccccc2F)c2cc([N+](=O)[O-])ccc2-n2c(SCCCN(C)C)nnc21` [Compound 59, methyl (S)-3-(8-nitro-1-((3-(dimethylamino)propyl)thio)-6-(2-fluorophenyl)-4H-benzo[f][1,2,4]triazolo[4,3-a][1,4]diazepin-4-yl)propionate], in the data set on hCMEC/D3 cells, the “In vitro blood-brain barrier” value is 75.7%. The compound further came in with a half-life at 0.4 mg/mL in data set [1] of 0.25 min. The same compound showed a Latency with SD rats [2] of 0.22 min. In the data set on KM mice (60 mg/kg), this compound gave a Duration of 9.62 min and a Latency of 0.37 min. In the data set with SD rats [3], the Duration of anesthesia was 4.89 min and the “Time from wake-up to recovery” value was determined as 31.3 min. Moreover, the EC50 in data set [4] (setting [6]) is 0.79 µM. Also, the “Enhancement percentage Emax” value in data set [4] (−60 mV) was 252% (20 μM).

For the compound `COC(=O)CC[C@@H]1N=C(c2ccccc2Cl)c2cc(Br)ccc2-n2c(SCCN3CCOCC3)nnc21` [Compound 82, methyl (S)-3-(8-bromo-6-(2-chlorophenyl)-1-((2-morpholinoethyl)thio)-4H-benzo[f][1,2,4]triazolo[4,3-a][1,4]diazepin-4-yl)propionate], the “In vitro blood-brain barrier” value with hCMEC/D3 cells came to 80.1%. The compound also registered a half-life at 0.4 mg/mL in data set [1] of 0.37 min. In the data set on SD rats [2], this compound showed a Latency of 0.41 min. Also, in the data set with KM mice (30 mg/kg), the Duration is reported as 8.37 min and the Latency was determined as 0.31 min. Also, in the data set with SD rats [3], the Duration of anesthesia came out at 10.27 min and the “Time from wake-up to recovery” value turned out to be 20.8 min. Further, in data set [4] (setting [6]), the EC50 worked out at 0.39 µM. Further, the “Enhancement percentage Emax” value in data set [4] (−60 mV) was 311% (20 μM).

In the case of `COC(=O)CC[C@@H]1N=C(c2ccccc2Cl)c2cc([N+](=O)[O-])ccc2-n2c(SCCN3CCOCC3)nnc21` [Compound 83, methyl (S)-3-(8-nitro-6-(2-chlorophenyl)-1-((2-morpholinoethyl)thio)-4H-benzo[f][1,2,4]triazolo[4,3-a][1,4]diazepin-4-yl)propionate], the “In vitro blood-brain barrier” value in the data set with hCMEC/D3 cells is 77.3%. In data set [1], this compound showed a half-life at 0.4 mg/mL of 0.28 min. Further, the Latency in the data set with SD rats [2] was 0.16 min; in the data set with KM mice (30 mg/kg) it was 0.28 min; in the data set on KM mice (60 mg/kg), 0.19 min. The Duration amounted to 7.89 min in the data set with KM mice (30 mg/kg) and 14.58 min in the data set on KM mice (60 mg/kg). This compound also gave a Duration of anesthesia in the data set with SD rats [3] of 28.66 min. Also, in the data set with SD rats [3], the “Time from wake-up to recovery” value came out at 16.3 min. For the same compound, in data set [4] (setting [6]), the EC50 is 0.57 µM. Besides, in data set [4] (−60 mV), the “Enhancement percentage Emax” value is given as 287% (20 μM).

Turning to `COC(=O)CC[C@@H]1N=C(c2ccccc2Cl)c2cc(Br)ccc2-n2c(SCCCN3CCN(CCO)CC3)nnc21` [Compound 97, methyl (S)-3-(8-bromo-6-(2-chlorophenyl)-1-((3-(4-(2-hydroxyethyl)piperazin-1-yl)propyl)thio)-4H-benzo[f][1,2,4]triazolo[4,3-a][1,4]diazepin-4-yl)propionate], in the data set on hCMEC/D3 cells, the “In vitro blood-brain barrier” value is given as 84.6%. The half-life at 0.4 mg/mL in data set [1] was found to be 0.61 min. In addition, the Latency in the data set on SD rats [2] was 0.18 min. Besides, in the data set with KM mice (60 mg/kg), the Duration is given as 17.07 min and the Latency came out at 0.93 min. Also, in the data set on SD rats [3], the Duration of anesthesia was determined as 6.43 min and the “Time from wake-up to recovery” value is on record as 17.4 min. For the same compound, in data set [4] (setting [6]), the EC50 came out at 0.84 µM. The “Enhancement percentage Emax” value in data set [4] (−60 mV) is 238% (20 μM).

Turning to `COC(=O)CC[C@@H]1N=C(c2ccccc2)c2cc(Cl)ccc2-n2c(SC)nnc21` [Compound 102, methyl (S)-3-(8-chloro-1-(methylthio)-6-phenyl-4H-benzo[f][1,2,4]triazolo[4,3-a][1,4]diazepin-4-yl)propionate], in the data set with hCMEC/D3 cells, the “In vitro blood-brain barrier” value was 87.1%. The same compound had a half-life at 0.4 mg/mL in data set [1] of 0.27 min. This compound also yielded a Latency with SD rats [2] of 0.37 min. In the data set with KM mice (30 mg/kg), this compound had a Duration of 17.24 min and a Latency of 1.13 min. In the data set on KM mice (60 mg/kg), this compound showed a Duration of 7.47 min and a Latency of 0.39 min. In addition, in the data set on SD rats [3], the Duration of anesthesia came to 4.27 min and the “Time from wake-up to recovery” value turned out to be 25.5 min. Further, the EC50 in data set [4] (setting [6]) was 0.48 µM. Moreover, the “Enhancement percentage Emax” value in data set [4] (−60 mV) is 291% (20 μM).

As to `COC(=O)CC[C@@H]1N=C(c2ccccn2)c2cc(Br)ccc2-n2c(SCc3ccncc3)nnc21` [Compound 126, methyl (S)-3-(8-bromo-6-(pyridin-2-yl)-1-(((pyridin-4-yl)methyl)thio)-4H-benzo[f][1,2,4]triazolo[4,3-a][1,4]diazepin-4-yl)propionate], the “In vitro blood-brain barrier” value in the data set on hCMEC/D3 cells was determined as 85.6%. The compound also had a half-life at 0.4 mg/mL in data set [1] of 0.41 min. The same compound registered a Latency in the data set on SD rats [2] of 0.26 min. For the same compound, in the data set on KM mice (30 mg/kg), the Duration was 5.05 min and the Latency is on record as 0.16 min. Further, in the data set on SD rats [3], the Duration of anesthesia turned out to be 9.52 min and the “Time from wake-up to recovery” value is given as 20.5 min. Besides, in data set [5], the half-maximal inhibitory concentration (IC50) (usually the concentration needed to halve the response being measured) is 72.5 µM. For the same compound, the EC50 in data set [4] (setting [6]) was 0.45 µM. Also, the “Enhancement percentage Emax” value in data set [4] (−60 mV) is recorded as 306% (20 μM).

Take `Cc1ncc2n1-c1ccc(Cl)cc1C(c1ccccc1F)=NC2` [Midazolam, reference compound]: the 50% inhibitory concentration (IC50) in data set [5] was 7.09 µM.

`COC(=O)CC[C@@H]1N=C(c2ccccc2F)c2cc(Cl)ccc2-n2c1n[nH]c2=S` [Tautomer of compound 1, methyl (S)-3-(8-chloro-6-(2-fluorophenyl)-1-thio-2,4-dihydro-1H-benzo[f][1,2,4]triazolo[4,3-a][1,4]diazepin-4-yl)propionate]: in the data set on hCMEC/D3 cells, the “In vitro blood-brain barrier” value was 76.8%. In data set [1], the “In vitro plasma half-life” value came to 4.65 min. In the data set with SD rats [2], this compound registered a Duration of 11.03 min and a Latency of 0.68 min. Also, in the data set on KM mice (30 mg/kg), the Duration was 3.47 min and the Latency stood at 0.21 min. Moreover, in the data set on SD rats [3], the Duration of anesthesia stood at 3.29 min and the “Time from wake-up to recovery” value is recorded as 9.6 min. Further, the EC50 in data set [4] (2 μM GABA, −60 mV, read-out: Positive enhancement EC50 (μM) for 2 μM GABA-induced current) stood at 0.72 µM. Moreover, the “Enhancement percentage Emax” value in data set [4] (−60 mV) is recorded as 234% (20 μM).
